In publication PMC11595864, “Design, Synthesis, and Evaluation of Novel Thiazole-Containing Algicides Inspired by Bacillamide A” (Marine Drugs, 2024):
Values after ≈ are worked out from the molar mass of the structure shown. Like-named read-outs stand apart in the source and are kept apart here.

What was measured:
A. pacificum [1] = assay: Growth-inhibition rate measurement at 50 mg/L, 24 h; type: cell-based, Alexandrium pacificum; conditions: for inhibition at 50 µg/mL: Alexandrium pacificum, read-out: inhibition rate against A. pacificum
Experimental: (§1) P. minimum, A. pacificum, and S. costatum were purchased from Guangyu Biological Technology Co., Ltd. (Shanghai, China). The algae strain was cultured in F/2 medium ((12 h light: 12 h dark cycle), 20 ± 1 °C, 70 μmol m^−2 s^−1). Purchased algae were transferred to sterile conical flasks for culture; after the algae proliferation was stabilized, the expanded culture was next carried out following standard conditions.
(§2) The stock solutions of bacillamide A and different BDs were prepared in dimethyl sulfoxide (DMSO) with the requisition amount. […] The controls received the same volume of DMSO. The inhibitory activities of bacillamide A, different BDs, and positive controls were screened by 96 well microtiter plates at different concentrations. Inhibition ratios (IRs) of cupric sulfate (50 mg/L, positive control), bacillamide A (50 mg/L), and BDs (50 mg/L) were calculated on algae using Equation (1). (1) IR=Cc0-Cex/Cc0×100%
(§3) The CC0 and Cex, respectively, represent the algal densities of the control and experimental groups.

A. pacificum [2] = assay: Algicidal activity assay, EC50; type: cell-based, Alexandrium pacificum; conditions: Mean ± SD, n = 3; for EC50: Alexandrium pacificum
Experimental: as §1
(§4) Copper sulfate and Diuron were used as the positive controls. EC50 values were calculated according to the equation of the quantity–effect relationship in Equation (2) using the Hill model of Graph Pad Prism software (8.0.2). (2) Y=Bottom+(Top-Bottom)/1+10^(Log EC50-X)×Hill Slope
(§5) The X and Y values represent the concentration (mg/L) and response values of the control and experimental groups, respectively. The Top, Bottom, and Hill Slope represent the maximum response, minimum response, and the curve slope, respectively. The EC50 represents half of the maximum effective concentration.

P. minimum [3] = assay: Growth-inhibition rate measurement at 50 mg/L, 24 h; type: cell-based, Prorocentrum minimum; conditions: for inhibition at 50 µg/mL: Prorocentrum minimum, read-out: inhibition rate against P. minimum
Experimental: as §1, §2, §3

P. minimum [4] = assay: Algicidal activity assay, EC50; type: cell-based, Prorocentrum minimum; conditions: for EC50: Prorocentrum minimum, read-out: EC50 P. minimum
Experimental: as §1, §4, §5

S. costatum [5] = assay: Algicidal activity assay, EC50; type: cell-based, Skeletonema costatum; conditions: for EC50: Skeletonema costatum, read-out: EC50 S. costatum
Experimental: as §1, §4, §5

zebrafish = assay: Zebrafish acute toxicity assay; type: in vivo; conditions: zebrafish
Experimental: Zebrafish acute toxicity of bacillamide A and synthesized BDs were evaluated at 0.1 mg/L, 1 mg/L, and 10 mg/L, respectively. Diuron and CuSO4 were used as positive controls. The commercial zebrafish (body length > 3.0 cm) were domesticated in aerated tap water for 24 h, fed once daily for seven consecutive days, and stopped being fed before the experiment.
4. Acute toxicity table S1.
Compound Concentration Survival percent Acute
aAccording to the Guide for Environmental Safety Assessment of Chemical Pesticides
4 groups and treated with different compounds for 96 h.

S. costatum [6] = assay: ROS level (DCFH-DA fluorescent probe assay); type: cell-based, Skeletonema costatum; conditions: 10 mg/L, 72 h
Experimental: (§6) P. minimum, S. costatum, and A. pacificum cells were cultured in F/2 medium. All flasks were cultivated under 12 h of light: 12 h of dark and 70 μmol m^−2 s^−1 at 20 ± 1 °C. […] Finally, the algal cells were collected and diluted in 6 mL of phosphate buffer (pH = 7.8). A small amount of quartz sand was added into the algal cells under ice bath. The obtained homogenate was next poured into a centrifuge tube and centrifuged at 5000 r/min for 25 min at 4 °C. The obtained supernatant was placed in the refrigerator at 4 °C for the next step experiment.
(§7) The reactive oxygen species (ROS) assay kit was purchased from SolarBio Co., Ltd., Beijing, China. The 2′,7′-dichlorodihydrofluorescein diacetate (DCFH-DA) could be oxidized by reactive oxygen or nitrogen species (ROS/RNS) to generate high fluorescent 2′,7′-dichlorofluoroscein (DCF). DCF could be detected by Cyto-FLEX flow cytometry.

P. minimum [7] = assay: ROS level (DCFH-DA fluorescent probe assay); type: cell-based, Prorocentrum minimum; conditions: 10 mg/L, 72 h
Experimental: as §6, §7

O=C(NCCc1ccccc1)c1csc(-c2ccccc2)n1 [Compound 7c]
inhibition at 50 µg/mL (A. pacificum [1]): 70 to 95% | EC50 (A. pacificum [2]): 0.53 ± 0.32 µg/mL (≈ 1.72 µM) | inhibition at 50 µg/mL (P. minimum [3]): 74.7% | EC50 (P. minimum [4]; Mean ± SD, n = 3): 3.38 ± 0.84 µg/mL (≈ 11 µM) | EC50 (S. costatum [5]; Mean ± SD, n = 3): 0.24 ± 0.058 µg/mL (≈ 0.778 µM)

CN(C)CCNC(=O)c1csc(-c2ccccc2)n1 [Compound 7d]
inhibition at 50 µg/mL (A. pacificum [1]): 70 to 95% | EC50 (A. pacificum [2]): 2.02 ± 0.54 µg/mL (≈ 7.34 µM) | EC50 (P. minimum [4]; Mean ± SD, n = 3): 3.22 ± 0.39 µg/mL (≈ 11.7 µM) | EC50 (S. costatum [5]; Mean ± SD, n = 3): 0.77 ± 0.21 µg/mL (≈ 2.8 µM)

O=C(Nc1ccccc1)c1csc(-c2ccccc2)n1 [Compound 7e]
inhibition at 50 µg/mL (A. pacificum [1]): 70 to 95% | EC50 (A. pacificum [2]): 0.69 ± 0.07 µg/mL (≈ 2.46 µM) | EC50 (P. minimum [4]; Mean ± SD, n = 3): 3.23 ± 0.39 µg/mL (≈ 11.5 µM) | EC50 (S. costatum [5]; Mean ± SD, n = 3): 1.1 ± 0.31 µg/mL (≈ 3.92 µM)

CC(C)(C)OC(=O)NCCNC(=O)c1csc(-c2ccccc2)n1 [Compound 7f]
inhibition rate against A. pacificum (A. pacificum [1]): lost most of its algicidal activity | inhibition rate against P. minimum (P. minimum [3]): lost most of its algicidal activity | melting point: 162 to 163 °C

NCCNC(=O)c1csc(-c2ccccc2)n1 [Compound 7g]
EC50 (A. pacificum [2]): 3.42 ± 0.13 µg/mL (≈ 13.8 µM) | inhibition at 50 µg/mL (P. minimum [3]): 76.9% | EC50 (P. minimum [4]; Mean ± SD, n = 3): 2.02 ± 0.27 µg/mL (≈ 8.17 µM) | melting point: 173 to 174 °C | EC50 (S. costatum [5]; Mean ± SD, n = 3): 2.28 ± 0.37 µg/mL (≈ 9.22 µM)

O=S(=O)([O-])[O-].[Cu+2] [CuSO4, cupric sulfate anhydrous, reference compound]
Survival percent (zebrafish; 0.1 mg/L, 0h): 100 | Survival percent (zebrafish; 0.1 mg/L, 24h): 100 | Survival percent (zebrafish; 0.1 mg/L, 48h): 80 | Survival percent (zebrafish; 0.1 mg/L, 72h): 73 | Survival percent (zebrafish; 0.1 mg/L, 96h): 73 | Survival percent (zebrafish; 1 mg/L, 0h): 100 | Survival percent (zebrafish; 1 mg/L, 24h): 50 | Survival percent (zebrafish; 1 mg/L, 48h): 50 | Survival percent (zebrafish; 1 mg/L, 72h): 43 | Survival percent (zebrafish; 1 mg/L, 96h): 43 | Survival percent (zebrafish; 10 mg/L, 0h): 100 | Survival percent (zebrafish; 10 mg/L, 24h): 0 | Survival percent (zebrafish; 10 mg/L, 48h): 0 | Survival percent (zebrafish; 10 mg/L, 72h): 0 | Survival percent (zebrafish; 10 mg/L, 96h): 0 | increase of ROS levels in S. costatum (S. costatum [6]): 7.7 fold | EC50 A. pacificum (A. pacificum [2]): 2.34 ± 0.06 µg/mL | EC50 P. minimum (P. minimum [4]; Mean ± SD, n = 3): 3.61 ± 0.32 µg/mL | increase of ROS levels in P. minimum (P. minimum [7]): 9.6 fold | EC50 S. costatum (S. costatum [5]; Mean ± SD, n = 3): 3.12 ± 0.21 µg/mL

CN(C)C(=O)Nc1ccc(Cl)c(Cl)c1 [Diuron, reference compound]
EC50 (A. pacificum [2]): 5.69 ± 0.46 µg/mL (≈ 24.4 µM) | EC50 (P. minimum [4]): 4.72 ± 0.41 µg/mL (≈ 20.2 µM) | EC50 (S. costatum [5]): 4.32 ± 0.14 µg/mL (≈ 18.5 µM)
